Assay results as given in article PMC5357904, “Vertebrate Cryptochromes are Vestigial Flavoproteins” (Scientific Reports, 2017).
Where a chain is given by its changes, count along the chain named.

What was measured:
Type in all cases: binding
DmCRY [1] = target: T1, DmCRY (Drosophila melanogaster, UniProt O77059, R298E/Q311E); assay: UV-visible absorption of purified protein ([…] nm), FAD occupancy; settings: co-purified FAD
T1 construct: gene cry

DmCRY [2] = target: T2, DmCRY (Drosophila melanogaster, UniProt O77059, R237H); assay: as above; settings: co-purified FAD
T2 construct: gene cry

HsCRY1 = target: T3, HsCRY1 (Homo sapiens, UniProt Q16526); assay: UV-visible absorption titration of apo-protein into constant FAD, global fit
T3 construct: gene CRY1; full length 1-586, 39-aa N-terminal 6xHis extension (pRSET-A), E. coli SoluBL21, apo-protein
T3 sequence (Q16526 1-586): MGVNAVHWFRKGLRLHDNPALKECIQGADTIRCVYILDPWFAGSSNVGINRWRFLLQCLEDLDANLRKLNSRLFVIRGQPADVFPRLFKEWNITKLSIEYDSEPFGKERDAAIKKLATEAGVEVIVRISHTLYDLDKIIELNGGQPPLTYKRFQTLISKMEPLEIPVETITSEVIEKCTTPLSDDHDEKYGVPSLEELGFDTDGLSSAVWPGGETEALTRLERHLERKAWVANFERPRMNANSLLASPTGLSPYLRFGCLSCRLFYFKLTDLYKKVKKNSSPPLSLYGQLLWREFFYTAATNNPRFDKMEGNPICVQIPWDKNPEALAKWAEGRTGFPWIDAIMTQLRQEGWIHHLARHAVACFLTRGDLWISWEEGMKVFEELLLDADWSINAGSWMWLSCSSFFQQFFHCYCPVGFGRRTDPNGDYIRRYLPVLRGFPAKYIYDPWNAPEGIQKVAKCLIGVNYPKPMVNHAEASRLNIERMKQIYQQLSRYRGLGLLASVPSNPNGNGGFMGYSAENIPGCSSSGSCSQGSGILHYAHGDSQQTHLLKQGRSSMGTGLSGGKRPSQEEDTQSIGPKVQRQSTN

DmCRY [3] = target: T4, DmCRY (Drosophila melanogaster, UniProt O77059, R237E/R298E); assay: UV-visible absorption of purified protein ([…] nm), FAD occupancy; settings: co-purified FAD
T4 construct: gene cry

HsCRY2 [4] = target: T5, HsCRY2 (Homo sapiens, UniProt Q49AN0, H243R/S415N); assay: UV-visible absorption after incubation in excess FAD and spin filtration; settings: occupancy after incubation in excess FAD and removal of free FAD
T5 construct: gene CRY2; full length 1-593, 39-aa N-terminal 6xHis extension (pRSET-A), E. coli SoluBL21, apo-protein
T5 sequence (Q49AN0 1-593 H243R/S415N): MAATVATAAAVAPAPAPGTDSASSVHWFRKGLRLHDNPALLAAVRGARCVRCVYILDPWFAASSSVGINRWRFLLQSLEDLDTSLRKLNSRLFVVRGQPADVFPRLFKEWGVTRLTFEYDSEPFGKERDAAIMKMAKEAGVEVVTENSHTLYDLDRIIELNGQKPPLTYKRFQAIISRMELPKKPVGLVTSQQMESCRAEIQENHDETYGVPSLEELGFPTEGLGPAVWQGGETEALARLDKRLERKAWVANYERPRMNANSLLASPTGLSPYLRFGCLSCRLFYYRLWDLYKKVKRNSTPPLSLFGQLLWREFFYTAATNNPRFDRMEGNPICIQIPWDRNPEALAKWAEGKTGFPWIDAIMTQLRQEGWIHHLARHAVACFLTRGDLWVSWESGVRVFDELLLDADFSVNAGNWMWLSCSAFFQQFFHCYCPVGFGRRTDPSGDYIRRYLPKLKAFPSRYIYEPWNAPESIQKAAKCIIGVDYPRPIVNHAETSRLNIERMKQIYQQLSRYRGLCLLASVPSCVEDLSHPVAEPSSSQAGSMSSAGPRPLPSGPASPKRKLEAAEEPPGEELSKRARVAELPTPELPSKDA

DmCRY [5] = target: T6, DmCRY (Drosophila melanogaster, UniProt O77059); assay: UV-visible absorption and visible CD of purified protein; settings: co-purified oxidized FAD; near-stoichiometric
T6 construct: gene cry

DmCRY [6] = target: T7, DmCRY (Drosophila melanogaster, UniProt O77059, R237E); assay: UV-visible absorption of purified protein ([…] nm), FAD occupancy; settings: co-purified FAD
T7 construct: gene cry

DmCRY [7] = target: T8, DmCRY (Drosophila melanogaster, UniProt O77059, Q311E); assay: as above; settings: co-purified FAD
T8 construct: gene cry

DmCRY [8] = target: T9, DmCRY (Drosophila melanogaster, UniProt O77059, N419S); assay: as above; settings: co-purified FAD
T9 construct: gene cry

SbCRY1a = target: T10, SbCRY1a (Sylvia borin, UniProt Q6ZZY0); assay: UV-visible absorption titration of apo-protein into constant FAD, global fit
T10 construct: gene CRY1; full length 1-620, 36-aa N-terminal 6xHis extension (pRSET-A), E. coli SoluBL21, apo-protein
T10 sequence (Q6ZZY0 1-620): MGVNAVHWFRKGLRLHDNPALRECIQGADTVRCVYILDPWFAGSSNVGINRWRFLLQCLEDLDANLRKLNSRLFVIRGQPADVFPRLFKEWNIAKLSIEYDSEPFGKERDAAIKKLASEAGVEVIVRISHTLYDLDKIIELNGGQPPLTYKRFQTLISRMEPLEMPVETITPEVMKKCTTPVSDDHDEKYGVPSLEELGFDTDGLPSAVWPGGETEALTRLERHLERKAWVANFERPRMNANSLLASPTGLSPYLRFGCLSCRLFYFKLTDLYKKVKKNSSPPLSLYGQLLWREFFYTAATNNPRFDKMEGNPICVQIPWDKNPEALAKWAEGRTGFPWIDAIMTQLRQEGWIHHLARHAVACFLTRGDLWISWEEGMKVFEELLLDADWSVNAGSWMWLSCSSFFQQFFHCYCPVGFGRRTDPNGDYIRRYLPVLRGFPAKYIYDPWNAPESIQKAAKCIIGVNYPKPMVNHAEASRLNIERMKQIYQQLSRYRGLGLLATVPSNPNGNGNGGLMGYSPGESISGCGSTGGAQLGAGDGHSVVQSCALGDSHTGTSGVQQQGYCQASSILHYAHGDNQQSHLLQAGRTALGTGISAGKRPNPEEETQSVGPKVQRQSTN

DmCRY [9] = target: T11, DmCRY (Drosophila melanogaster, UniProt O77059, R298E); assay: UV-visible absorption of purified protein ([…] nm), FAD occupancy; settings: co-purified FAD
T11 construct: gene cry

HsCRY2 [10] = target: T12, HsCRY2 (Homo sapiens, UniProt Q49AN0); assay: UV-visible absorption titration of apo-protein into constant FAD, global fit
T12 construct: gene CRY2; full length 1-593, 39-aa N-terminal 6xHis extension (pRSET-A), E. coli SoluBL21, apo-protein
T12 sequence (Q49AN0 1-593): T5 sequence (Q49AN0 1-593 H243R/S415N) with R243H, N415S

T8 sequence (O77059 1-539 Q311E): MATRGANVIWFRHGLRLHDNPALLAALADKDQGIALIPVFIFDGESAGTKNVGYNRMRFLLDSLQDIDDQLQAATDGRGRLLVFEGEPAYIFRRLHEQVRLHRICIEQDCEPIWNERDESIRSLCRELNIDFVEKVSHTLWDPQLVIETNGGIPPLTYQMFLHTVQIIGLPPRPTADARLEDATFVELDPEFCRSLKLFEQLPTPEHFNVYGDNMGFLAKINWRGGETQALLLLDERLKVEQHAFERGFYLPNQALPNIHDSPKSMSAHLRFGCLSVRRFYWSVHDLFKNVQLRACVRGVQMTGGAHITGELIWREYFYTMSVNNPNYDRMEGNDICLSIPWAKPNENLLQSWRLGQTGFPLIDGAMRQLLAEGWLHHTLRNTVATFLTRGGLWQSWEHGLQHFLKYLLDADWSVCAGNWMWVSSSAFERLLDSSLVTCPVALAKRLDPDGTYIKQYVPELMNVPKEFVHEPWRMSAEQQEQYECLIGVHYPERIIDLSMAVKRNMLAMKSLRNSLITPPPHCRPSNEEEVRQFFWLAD
T4 sequence (O77059 1-539 R237E/R298E): as the sequence (O77059 1-539 Q311E) above, with R237E, R298E, E311Q counted along it
T1 sequence (O77059 1-539 R298E/Q311E): as the sequence (O77059 1-539 Q311E) above, with R298E counted along it
T9 sequence (O77059 1-539 N419S): as the sequence (O77059 1-539 Q311E) above, with E311Q, N419S counted along it
T6 sequence (O77059 1-539): as the sequence (O77059 1-539 Q311E) above, with E311Q counted along it
T7 sequence (O77059 1-539 R237E): as the sequence (O77059 1-539 Q311E) above, with R237E, E311Q counted along it
T2 sequence (O77059 1-539 R237H): as the sequence (O77059 1-539 Q311E) above, with R237H, E311Q counted along it
T11 sequence (O77059 1-539 R298E): as the sequence (O77059 1-539 Q311E) above, with R298E, E311Q counted along it

Question: Which “% reduction of FAD occupancy” value (DmCRY [1]) does the source give for `Cc1cc2nc3c(=O)[nH]c(=O)nc-3n(C[C@H](O)[C@H](O)[C@H](O)COP(=O)(O)OP(=O)(O)OC[C@H]3O[C@@H](n4cnc5c(N)ncnc54)[C@H](O)[C@@H]3O)c2cc1C` [FAD] here?
Answer: The value was ~ 58%.

Question: What about the FAD occupancy (DmCRY [2]) of the same compound?
Answer: Its FAD occupancy is “single point mutations only had a minimal impact on FAD occupancy”.

Question: What about the Kd (HsCRY1) of the same compound?
Answer: The Kd was 16 µM.

Question: And the “% reduction of FAD occupancy” value (DmCRY [3])?
Answer: The value was ~ 16%.

Question: What about the “% bound FAD” value (HsCRY2 [4]) of the same compound?
Answer: The value was ~ 30%.

Question: And the “UV-visible absorption and visible CD of purified protein” value (DmCRY [5])?
Answer: Its value is “UV-visible absorption spectrum of DmCRY shows near-stoichiometric binding of oxidized FAD”.

Question: What about the “% reduction of FAD occupancy” value (DmCRY [6]) of the same compound?
Answer: The value was ~ 12%.

Question: What about the FAD occupancy (DmCRY [7]) of the same compound?
Answer: The FAD occupancy was “single point mutations only had a minimal impact on FAD occupancy”.

Question: What about the FAD occupancy (DmCRY [8]) of the same compound?
Answer: Its FAD occupancy is “single point mutations only had a minimal impact on FAD occupancy”.

Question: And the Kd (SbCRY1a)?
Answer: The Kd was 97 µM.

Question: And the FAD occupancy (DmCRY [9])?
Answer: Its FAD occupancy is “single point mutations only had a minimal impact on FAD occupancy”.

Question: What about the Kd (HsCRY2 [10]) of the same compound?
Answer: Its Kd is 68 µM.
